# Experimental data taken from the supplement of paper PMC10307832.
# Legend:
# Test in all cases: relative viability (nuclei count vs DMSO), 5 days (fraction); higher = more cells survive
# [1] = compound: COc1cc2ncn(-c3cc(OCc4ccccc4C(F)(F)F)c(C(N)=O)s3)c2cc1OC + CS(=O)(=O)N1CCN(Cc2cc3nc(-c4cccc5[nH]ncc45)nc(N4CCOCC4)c3s2)CC1 [Pictilisib] (partner 1 µM)
# How it was run: (§1)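 Lung cancer cell lines in 1536-well plates were dosed by pin tool the day after seeding, either with one drug alone or with a fixed anchor-drug dose plus five library-drug doses (not always all listed) in √10 steps. After 5 days, cells were fixed and their nuclei stained in one step (final 0.05% Triton X-100, 1% formaldehyde, 1 ug/ml Hoechst), then counted on 4× images. Relative viability is the nuclei count in treated wells divided by that in vehicle wells. Values are medians of duplicate plates.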
# [2] = compound: COc1cc2ncn(-c3cc(OCc4ccccc4C(F)(F)F)c(C(N)=O)s3)c2cc1OC + Cc1nc(NC(=O)N2CCC[C@H]2C(N)=O)sc1-c1ccnc(C(C)(C)C(F)(F)F)c1 [Alpelisib] (partner 2 µM)
# How it was run: as §1
# [3] = compound: COc1cc2ncn(-c3cc(OCc4ccccc4C(F)(F)F)c(C(N)=O)s3)c2cc1OC + N=C(N)NC(=N)NCCc1ccccc1 [Phenformin] (partner 250 µM)
# How it was run: as §1
# [4] = compound: COc1cc2ncn(-c3cc(OCc4ccccc4C(F)(F)F)c(C(N)=O)s3)c2cc1OC + NC(=O)Nc1cc(-c2cccc(F)c2)sc1C(=O)N[C@H]1CCCNC1 [AZD7762] (partner 0.2 µM)
# How it was run: as §1
Cell Line,relative viability ([1]; first compound 0.05 µM),relative viability ([1]; first compound 0.1581 µM),relative viability ([1]; first compound 0.5 µM),relative viability ([1]; first compound 1.581 µM),relative viability ([1]; first compound 5 µM),relative viability ([2]; first compound 0.05 µM),relative viability ([2]; first compound 0.1581 µM),relative viability ([2]; first compound 0.5 µM),relative viability ([2]; first compound 1.581 µM),relative viability ([2]; first compound 5 µM),relative viability ([3]; first compound 0.05 µM),relative viability ([3]; first compound 0.1581 µM),relative viability ([3]; first compound 0.5 µM),relative viability ([3]; first compound 1.581 µM),relative viability ([3]; first compound 5 µM),relative viability ([4]; first compound 0.05 µM),relative viability ([4]; first compound 0.1581 µM),relative viability ([4]; first compound 0.5 µM),relative viability ([4]; first compound 1.581 µM),relative viability ([4]; first compound 5 µM)
201T,0.717,0.743,0.682,0.319,0.247,1,1.08,0.984,0.475,0.297,0.482,0.252,0.413,0.242,0.205,0.642,0.668,0.554,0.442,0.242
A-427,0.76,0.527,0.729,0.262,0.117,1.01,1.13,1,0.486,0.161,0.336,0.277,0.25,0.151,0.0968,0.793,0.68,0.682,0.231,0.153
ABC-1,0.645,0.791,0.634,0.284,0.229,1.25,1.02,0.786,0.316,0.319,0.239,0.255,0.226,0.172,0.181,0.782,0.487,0.741,0.631,1.01
BEN,0.653,0.557,0.471,0.223,0.233,1.18,1,0.81,0.262,0.391,0.262,0.28,0.217,0.218,0.206,0.788,0.735,0.678,0.464,0.389
CAL-12T,0.351,0.389,0.323,0.186,0.177,1.03,0.973,0.513,0.188,0.196,0.524,0.339,0.21,0.153,0.138,0.555,0.598,0.514,0.239,0.199
COR-L23,0.876,0.9,0.533,0.0929,0.0905,0.85,0.746,0.334,0.0804,0.0944,0.464,0.385,0.201,0.104,0.0889,,,,,
COR-L 105,0.475,0.386,0.267,0.279,0.259,1.13,0.913,0.857,0.34,0.258,0.426,0.441,0.353,0.29,0.221,,,,,
Calu-6,0.821,0.735,0.221,0.0967,0.102,0.92,0.67,0.23,0.128,0.112,,,,,,,,,,
ChaGo-K-1,0.676,0.419,0.594,0.322,0.248,,,,,,0.638,0.476,0.49,0.163,0.128,0.896,0.853,0.882,0.237,0.16
EBC-1,0.478,0.383,0.145,0.134,0.141,0.82,0.682,0.235,0.207,0.194,,,,,,,,,,
EKVX,0.42,0.516,0.427,0.262,0.291,0.889,0.982,0.834,0.21,0.215,0.236,0.151,0.188,,0.197,0.841,0.48,0.655,0.416,0.33
EMC-BAC-2,0.581,0.46,0.526,0.352,0.139,0.804,0.799,0.639,0.403,0.149,0.545,0.528,0.465,0.215,0.142,1.18,1.21,1.08,0.357,0.223
EPLC-272H,0.354,0.202,0.287,0.173,0.135,0.9,0.869,0.402,0.126,0.129,,0.323,0.151,0.135,0.15,0.191,0.334,0.247,0.107,0.13
H3255,0.458,0.467,0.247,0.21,0.187,0.626,0.796,0.444,0.335,0.233,0.365,0.37,0.282,,0.304,0.946,0.922,0.625,0.395,0.324
HARA,0.443,0.38,0.274,0.0824,0.0556,0.894,0.764,0.712,0.176,0.0641,0.469,0.395,0.364,0.0656,0.0542,0.301,,0.201,0.173,0.112
HCC-15,0.69,0.707,0.549,0.163,0.125,0.93,0.749,0.283,0.142,0.1,0.486,0.383,0.204,0.122,0.0883,1.18,1.05,1.03,0.21,0.154
HCC-44,0.76,0.601,0.632,0.104,0.11,0.908,0.76,0.503,0.13,0.0819,0.193,0.164,0.106,0.0862,0.118,1.03,1.04,0.991,0.549,0.375
HCC-78,0.221,0.188,0.186,0.206,0.186,0.371,0.402,0.289,0.206,0.27,0.851,0.837,0.495,0.446,0.22,0.795,0.653,0.493,0.565,0.422
